Columns and labels:
mouse DGAT1 = target: T1, mouse DGAT1 (Mus musculus, UniProt Q9Z2A7); assay: DGAT1 inhibitory effect test (microsome fraction, [14C]-oleoyl-CoA, triglyceride radioactivity by TLC); format: biochemical; details: 0.5 h; concentration of the test compound 0.1 μg/ml; mouse DGAT1 microsomes, 23° C., 30 minutes; read-out: Inhibitory ratio
T1 construct: made in house; host or cells: insect cells (High Five, Sf9, Sf21, etc.), baculovirus expression system (Invitrogen)
T1 sequence (Q9Z2A7 1-498): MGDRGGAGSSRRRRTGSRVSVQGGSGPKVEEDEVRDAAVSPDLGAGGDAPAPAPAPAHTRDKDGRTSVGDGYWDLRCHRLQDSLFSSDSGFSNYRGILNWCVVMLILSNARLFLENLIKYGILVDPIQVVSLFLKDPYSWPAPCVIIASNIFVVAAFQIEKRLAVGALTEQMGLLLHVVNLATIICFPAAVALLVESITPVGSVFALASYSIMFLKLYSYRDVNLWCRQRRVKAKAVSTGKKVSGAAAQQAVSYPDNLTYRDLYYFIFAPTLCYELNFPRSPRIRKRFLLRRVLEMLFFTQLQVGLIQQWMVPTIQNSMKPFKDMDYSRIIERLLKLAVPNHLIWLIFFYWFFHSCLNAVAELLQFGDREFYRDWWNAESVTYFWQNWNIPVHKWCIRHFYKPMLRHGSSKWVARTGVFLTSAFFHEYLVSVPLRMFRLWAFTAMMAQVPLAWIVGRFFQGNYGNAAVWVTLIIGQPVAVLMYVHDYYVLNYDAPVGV
How it was run: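 Inhibition was scored from radiolabelled triglyceride separated by TLC, relative to vehicle and net of a 0-min background. The reaction ran for 30 min at room temperature (23 °C) in Tris-HCl pH 8.0 with MgCl2, BSA and Triton X-100. Substrates were 30 μM [14C]-oleoyl-CoA and 0.5 mM dioleoylglycerol, with mouse DGAT1 microsomes from baculovirus-infected insect cells as enzyme.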

| Compound | melting point | inhibition at 0.1 µg/mL (mouse DGAT1) [%] |
| --- | --- | --- |
| COc1ccc(C)cc1NC(=O)Nc1ccc(N2CCN(C(=O)Nc3ccc(OCCO)cc3C(F)(F)F)CC2)c(C#N)c1 [Example 242, 4-{2-cyano-4-[3-(2-methoxy-5-methyl-phenyl)-ureido]-phenyl}-piperazine-1-carboxylic acid [4-(2-hydroxy-ethoxy)-2-trifluoromethyl-phenyl]-amide] | 135 to 137 °C | ≥ 50 |
| CCOc1ccccc1NC(=O)Nc1ccc(N2CCN(C(=O)Nc3c(C)cccc3OC)CC2)nc1 [Example 187, 4-{5-[3-(2-ethoxy-phenyl)-ureido]-pyridin-2-yl}-piperazine-1-carboxylic acid (2-methoxy-6-methyl-phenyl)-amide] | 129 to 130 °C | ≥ 50 |
| CCCCOc1ccc(NC(=O)Nc2ccc(N3CCN(C(=O)Nc4c(C)cccc4Cl)CC3)cc2)cc1 [Example 162, 4-{4-[3-(4-butoxy-phenyl)-ureido]-phenyl}-piperazine-1-carboxylic acid (2-chloro-6-methyl-phenyl)-amide] | 218 to 219 °C | ≥ 50 |
| CCOc1ccc(F)cc1NC(=O)Nc1ccc(N2CCN(C(=O)Nc3ccccc3C(F)(F)F)CC2)cc1 [Example 89, 4-{4-[3-(2-ethoxy-5-fluoro-phenyl)-ureido]-phenyl}-piperazine-1-carboxylic acid (2-trifluoromethyl-phenyl)-amide] | 197 to 199 °C | ≥ 50 |
| Cc1cccc(Cl)c1NC(=O)N1CCN(c2ccc(NC(=O)Nc3ccc(C(C)C)cc3)cc2)CC1 [Example 158, 4-{4-[3-(4-isopropyl-phenyl)-ureido]-phenyl}-piperazine-1-carboxylic acid (2-chloro-6-methyl-phenyl)-amide] | 278 to 280 °C | ≥ 50 |
| Cc1cccc(Cl)c1NC(=O)N1CCN(c2ccc(NC(=O)Nc3ccc(N(C)C)cc3)cc2)CC1 [Example 156, 4-{4-[3-(4-dimethylamino-phenyl)-ureido]-phenyl}-piperazine-1-carboxylic acid (2-chloro-6-methyl-phenyl)-amide] | 214 to 217 °C | ≥ 50 |
| COc1cc(NC(=O)Nc2ccc(C3=CCN(C(=O)Nc4ccc(OCC(O)CO)cc4Cl)CC3)cc2)cc(OC)c1 (stereo not drawn) [Example 287, 4-{4-[3-(3,5-dimethoxy-phenyl)-ureido]-phenyl}-3,6-dihydro-2H-pyridine-1-carboxylic acid [2-chloro-4-(2,3-dihydroxy-propoxy)-phenyl]-amide] | 108 to 111 °C | ≥ 50 |
| Cc1ccc(Cl)c(NC(=O)Nc2ccc(N3CCN(C(=O)Nc4c(C)cccc4Cl)CC3)cc2)c1 [Example 165, 4-{4-[3-(2-chloro-5-methyl-phenyl)-ureido]-phenyl}-piperazine-1-carboxylic acid (2-chloro-6-methyl-phenyl)-amide] | > 260 °C (dec.) | ≥ 50 |
| COc1cc(NC(=O)Nc2ccc(C3CCN(C(=O)Nc4ccc(OCC(O)CO)cc4Cl)CC3)cc2)cc(OC)c1 (stereo not drawn) [Example 289, 4-{4-[3-(3,5-dimethoxy-phenyl)-ureido]-phenyl}-piperidine-1-carboxylic acid [2-chloro-4-(2,3-dihydroxy-propoxy)-phenyl]-amide] | 105 to 108 °C | ≥ 50 |
| CCOc1ccccc1NC(=O)Nc1ccc(N2CCN(C(=O)Nc3c(C)cccc3C)CC2)nc1 [Example 142, 4-{5-[3-(2-ethoxy-phenyl)-ureido]-pyridin-2-yl}-piperazine-1-carboxylic acid (2,6-dimethyl-phenyl)-amide] | 188 to 190 °C | ≥ 50 |
| COc1ccc(C)cc1NC(=O)Nc1ccc(N2CCN(C(=O)Nc3c(F)cccc3C(F)(F)F)CC2)nc1 [Example 139, 4-{5-[3-(2-methoxy-5-methyl-phenyl)-ureido]-pyridin-2-yl}-piperazine-1-carboxylic acid (2-fluoro-6-trifluoromethyl-phenyl)-amide] | 221 to 222 °C | ≥ 50 |
| COc1cc(NC(=O)Nc2ccc(N3CCN(C(=O)Nc4ncc(F)cc4F)CC3)cc2)cc(OC)c1 [Example 341, 4-{4-[3-(3,5-dimethoxy-phenyl)-ureido]-phenyl}-piperazine-1-carboxylic acid (3,5-difluoro-pyridin-2-yl)-amide] | 204 to 205 °C | ≥ 50 |
| COc1ccc(C)cc1NC(=O)Nc1ccc(N2CCN(C(=O)Oc3ccc(CC(=O)O)cc3Cl)CC2)cc1 [Example 394, 4-{4-[3-(2-methoxy-5-methyl-phenyl)-ureido]-phenyl}-piperazine-1-carboxylic acid 4-carboxymethyl-2-chloro-phenyl ester] | 199 to 200 °C | ≥ 50 |
| COc1ccc(C)cc1NC(=O)Nc1ccc(C2CCN(C(=O)Nc3ccc(OCC(O)CO)cc3Cl)CC2)cc1 (stereo not drawn) [Example 283, 4-{4-[3-(2-methoxy-5-methyl-phenyl)-ureido]-phenyl}-piperidine-1-carboxylic acid [2-chloro-4-(2,3-dihydroxy-propoxy)-phenyl]-amide] | 179 to 181 °C | ≥ 50 |

Further lines, results first:

| melting point | inhibition at 0.1 µg/mL (mouse DGAT1) [%] | Compound |
| --- | --- | --- |
| 121 to 124 °C | ≥ 50 | COc1ccc(C)cc1NC(=O)Nc1ccc(N2CCN(C(=O)Nc3cc(OCCO)ccc3Cl)CC2)cc1 [Example 231, 4-{4-[3-(2-methoxy-5-methyl-phenyl)-ureido]-phenyl}-piperazine-1-carboxylic acid [2-chloro-5-(2-hydroxy-ethoxy)-phenyl]-amide] |
| 225 to 226 °C | ≥ 50 | COc1ccc(NC(=O)N2CCN(c3ccc(NC(=O)Nc4cc(Cl)ccc4OC)cc3)CC2)c(C)c1 [Example 109, 4-{4-[3-(5-chloro-2-methoxy-phenyl)-ureido]-phenyl}-piperazine-1-carboxylic acid (4-methoxy-2-methyl-phenyl)-amide] |
| 209 to 210 °C | ≥ 50 | COc1cc(NC(=O)Nc2ccc(N3CCN(C(=O)Nc4ccc(OCCO)cc4C(F)(F)F)CC3)cc2)cc(OC)c1 [Example 216, 4-{4-[3-(3,5-dimethoxy-phenyl)-ureido]-phenyl}-piperazine-1-carboxylic acid [4-(2-hydroxy-ethoxy)-2-trifluoromethyl-phenyl]-amide] |
| 172 to 173 °C | ≥ 50 | COc1ccc(F)cc1NC(=O)Nc1ccc(N2CCN(C(=O)Nc3ccc(OCCO)cc3C(F)(F)F)CC2)nc1 [Example 223, 4-{5-[3-(5-fluoro-2-methoxy-phenyl)-ureido]-pyridin-2-yl}-piperazine-1-carboxylic acid [4-(2-hydroxy-ethoxy)-2-trifluoromethyl-phenyl]-amide] |
| 244 to 246 °C | ≥ 50 | COc1ccc(C)cc1NC(=O)Nc1ccc(N2CCN(C(=O)Nc3ccc(N)cc3C(F)(F)F)CC2)cc1 [Example 166, 4-{4-[3-(2-methoxy-5-methyl-phenyl)-ureido]-phenyl}-piperazine-1-carboxylic acid (4-amino-2-trifluoromethyl-phenyl)-amide] |
| 216 to 218 °C | ≥ 50 | COc1ccc(C)cc1NC(=O)Nc1ccc(N2CCN(C(=O)Nc3ncccc3C)CC2)nc1 [Example 301, 4-{5-[3-(2-methoxy-5-methyl-phenyl)-ureido]-pyridin-2-yl}-piperazine-1-carboxylic acid (3-methyl-pyridin-2-yl)-amide] |
| 189 to 190 °C | ≥ 50 | COc1ccc(C)cc1NC(=O)Nc1ccc(N2CCN(C(=O)Oc3ccc(CCO)cc3Cl)CC2)cc1 [Example 395, 4-{4-[3-(2-methoxy-5-methyl-phenyl)-ureido]-phenyl}-piperazine-1-carboxylic acid 2-chloro-4-(2-hydroxy-ethyl)-phenyl ester] |
| 215 to 216 °C | ≥ 50 | COc1cccnc1NC(=O)Nc1ccc(N2CCN(C(=O)Nc3ccc(OCCO)cc3Cl)CC2)cc1 [Example 270, 4-{4-[3-(3-methoxy-pyridin-2-yl)-ureido]-phenyl}-piperazine-1-carboxylic acid [2-chloro-4-(2-hydroxy-ethoxy)-phenyl]-amide] |
| 229 to 230 °C | ≥ 50 | CCOc1ccc(NC(=O)Nc2ccc(N3CCN(C(=O)Nc4c(C)cccc4Cl)CC3)cc2)cc1 [Example 159, 4-{4-[3-(4-ethoxy-phenyl)-ureido]-phenyl}-piperazine-1-carboxylic acid (2-chloro-6-methyl-phenyl)-amide] |
| 219 to 221 °C | ≥ 50 | CCOc1ccc(Cl)cc1NC(=O)Nc1ccc(N2CCN(C(=O)Nc3ccccc3C(F)(F)F)CC2)cc1 [Example 102, 4-{4-[3-(5-chloro-2-ethoxy-phenyl)-ureido]-phenyl}-piperazine-1-carboxylic acid (2-trifluoromethyl-phenyl)-amide] |

Source: patent publication US20070249620A1, “Urea Derivative” (priority 2004, published 2007)
